Data published in patent publication US20210032291A1, “Compstatin Analogs With Improved Pharmacokinetic Properties” (The Trustees of the University of Pennsylvania, priority 2011, published 2021).
≈ marks a conversion by molar mass, not a printed value.

Experiments:
[1] = in vivo; conditions: cynomolgus monkey, iv, 2 mg/kg
Procedure: Primate studies and sample collection. Evaluation of plasma half-life and generation of major metabolites was performed at the Simian Conservation Breeding and Research Center (SICONBREC, Makati City, Philippines) in cynomolgus monkeys (Macaca fascicularis). […] Blood samples (1-2 mL) were collected immediately before and at various time points after compound injection (2, 5 and 30 min; 1, 2, 4, 6, and 24 hours) in EDTA-coated Vacutainer tubes to prevent coagulation and complement activation, and centrifuged at ˜800×g for 10 min to obtain plasma. Plasma samples were immediately frozen and stored for further analysis. All NHP studies were performed in accordance with animal welfare laws and regulations.
Analysis of plasma samples. Prior to analysis by UPLC-MS, compstatin analogs in the plasma samples were extracted by solid phase extraction (SPE) in a 96-well plate format (HLB Oasis 30 μm, 10 mg; Waters, Milford, Mass.). […] Eluted peptides were directly analyzed by HDMS; the ESI source capillary voltage was set to 3.2 kV, the cone voltage to 30 V and the source temperature to 120° C. […]
Determination of plasma half-life. […] All calibration samples were subjected to SPE and measured using UPLC-HDMS as described above. […] For the pharmacokinetic analysis, the plasma concentration (Cp) at each time point was calculated from the extracted peak area of each peptide using the corresponding standard curve.

[2] = tested on: classical pathway of complement; assay: ELISA inhibition of classical pathway complement activation; assay type: biochemical; conditions: read-out: IC50, peptide concentration to reach 50% inhibition of classical pathway complement activation; Table 1
Procedure: Inhibition of complement activation. The ability of the compstatin analogs to inhibit the activation of the classical pathway of complement was assessed by ELISA as described elsewhere (Katragadda et al., 2006, supra; Mallik et al., 2005, supra). The percent inhibition was plotted against the peptide concentration, and the resulting data set was fitted to the logistic dose-response function using Origin 8.0 software. IC50 values were obtained from the fitted parameters that produced the lowest χ2 value. Each analog was assayed at least three times.

[3] = in vitro; conditions: human, plasma
Procedure: Plasma stability. Fresh human plasma containing lepirudin (3.75 units/ml) was incubated at 37° C. with Cp30 (SEQ ID NO:7), Cp40 (SEQ ID NO:18) or control peptide 2B at a final concentration of 20 μM each. Samples of 100 μL were taken for solid phase extraction. A 96-well plate HLB Oasis 30 μm 10 mg (Waters, Milford, Mass.) was employed for extraction. The SPE material was conditioned by addition of 500 μL each of methanol and ACN followed by addition of 500 μL of milli-Q water. Sample was diluted 1:1 with 4% H3PO4. After loading the sample, washing was carried out twice with 500 μL of 10% ACN in 0.1% formic acid. Sample was eluted with 200 μL of 65% ACN in 0.1% formic acid and collected in the Eppendorf LoBind collection plate. Sample for UPLC-MS was diluted 1:10 in milli-Q water with 0.1% formic acid. Cp20 (SEQ ID NO:3) was spiked in each sample before SPE as an internal standard.
UPLC-MS analysis. UPLC-MS analysis was performed on a SYNAPT HDMS (Waters, Milford, Mass.) equipped with an ESI source controlled by MassLynx 4.1 software (Waters). Each sample was injected in quadruplicates. An online ACQUITY UPLC (Waters) system was used for peptide separation by reversed-phase liquid chromatography. The capillary voltage was 3.2 kV, the cone voltage was 30 V and the source temperature was 120° C. [Glu1]-fibrinogen peptide was used for lock-mass correction with a sampling rate of 30 s. […]

[4] = in vivo; design: species or system cynomolgus monkeys (Macaca fascicularis); conditions: cynomolgus monkey
Procedure: Primate studies and sample collection. […] Two healthy animals were used for each route of administration. The animals were sedated and injected subcutaneously with 2 mg/kg of the compound or orally by intragastric gavage with 4 mg/kg of the compound.
(§1) Analyses. Analysis of plasma samples, determination of plasma half-life and complement inhibitory activity in plasma were performed as described in Example 5.

[5] = biological target: T1, C3b (Homo sapiens, UniProt P01024); assay: SPR kinetic analysis of binding to immobilized C3b (Biacore, single cycle kinetics)
T1 construct: Biotinylated C3b was captured site-specifically on a streptavidin chip
Procedure: SPR analysis. The interaction of the compstatin analogs with C3b was characterized using a Biacore 3000 instrument (GE Healthcare, Corp., Piscataway, N.J.). The running buffer was PBS, pH 7.4 (10 mM sodium phosphate, 150 mM NaCl) with 0.005% Tween-20. Biotinylated C3b was captured site-specifically on a streptavidin chip at about 3000 and 5000 RU density; two untreated flow cells were used as reference surface. For kinetic analysis, sets of five increasing concentrations of a particular compound were injected over the chip surface one after the other in a single cycle. […] Processed biosensor data were globally fitted to a 1:1 Langmuir binding model (kindly provided by GE Helthcare), and the equilibrium dissociation constant (KD) was calculated from the equation KD=kd/ka. Each assay was performed at least twice.

[6] = physchem
Procedure: (§4) Approximately 5 mg of each peptide (acetate form) was weighed out into separate LoBind Eppendorf tubes and 50 μL water for injection (WFI) was added to each tube. Each sample was centrifuged at 13000 rpm for 2 min and diluted for measuring the optical density (OD) at 280 nm using a NanoDrop 2000 spectrophotometer (ThermoScientific, Wilmington, Del.). Each concentrated sample was diluted 1:20 into Dulbecco's phosphate buffered saline (DPBS, without potassium and calcium; Invitrogen, Carlsbad, Calif.). The samples were monitored for precipitation, and each sample was vortexed for 5 min and centrifuged at 13000 rpm for 2 min. The OD of each DPBS supernatant was measured to determine peptide concentration at saturation.
(§5) In addition, the ultra performance liquid chromatography (UPLC) retention time of these peptides on a C18 column was measured to reflect their apparent relative hydrophobicity (Table 3).

[7] = tested on: complement activation via the alternative pathway; assay: Erythrocyte hemolytic assay on plasma samples of treated baboon; assay type: in vivo; conditions: intramuscular injection 2 mg/kg
Procedure: (§2) Hemolytic assay. Rabbit erythrocytes were washed with phosphate-buffered saline (PBS) followed by washing with Veronal-buffered saline (VBS)^Mg+/EGTA. A 1:20 dilution was prepared in VBS buffer. Plasma samples (1:10 in VBS−100 μl) was incubated with the rabbit erythrocytes solution (50 μl) in a 96-well plate at 37° C. for 1 h. EDTA (0.2 mM-15μl) was added to stop the reaction and plate was centrifuged (2500×g 3 min). Supernatant (100μl) was transferred to a new well and optical density was measured at 405 nm. Incubation of erythrocytes with water or buffer was used as positive (100% lysis) and negative (0% lysis) control, respectively.
(§3) Extraction of compstatin analog from plasma samples and LC-MS/MS analysis were performed as described in Example 7. A hemolytic assay was performed as described in Example 5.

[8] = 5 min, pH 7.4
Procedure: as §4, §5

[9] = tested on: complement activation via the alternative pathway; assay: Erythrocyte hemolytic assay on plasma samples of treated cynomolgus monkeys; assay type: in vivo, cynomolgus monkeys (Macaca fascicularis); conditions: subcutaneous injection 2 mg/kg
Procedure: as §2, §1

[10] = in vivo; design: species or system baboon; conditions: 2 mg/kg
Procedure: A juvenile baboon was injected intramuscularly with 2 mg/kg Cp40 (SEQ ID NO:18) Blood samples for the LC-MS/MS assay were collected in 1-ml plastic tubes containing 50 μg lepirudin, and centrifuged at 2000 g for 20 min at 4° C. for plasma separation. Plasma samples were stored at −70° C. Blood samples were collected at pre-determined time intervals after injection of the analog. Samples were treated with SPE and analyzed using LC-MS/MS. Calibration curves were created using standard peptides at various concentrations in plasma to determine peptide concentration in each sample.
as §3

[11] = Solubility in WFI and DPBS; UPLC C18 retention time as hydrophobicity; conditions: UPLC analysis on a C18 column
Procedure: as §4, §5

T1 sequence (P01024 23-667 limits assumed): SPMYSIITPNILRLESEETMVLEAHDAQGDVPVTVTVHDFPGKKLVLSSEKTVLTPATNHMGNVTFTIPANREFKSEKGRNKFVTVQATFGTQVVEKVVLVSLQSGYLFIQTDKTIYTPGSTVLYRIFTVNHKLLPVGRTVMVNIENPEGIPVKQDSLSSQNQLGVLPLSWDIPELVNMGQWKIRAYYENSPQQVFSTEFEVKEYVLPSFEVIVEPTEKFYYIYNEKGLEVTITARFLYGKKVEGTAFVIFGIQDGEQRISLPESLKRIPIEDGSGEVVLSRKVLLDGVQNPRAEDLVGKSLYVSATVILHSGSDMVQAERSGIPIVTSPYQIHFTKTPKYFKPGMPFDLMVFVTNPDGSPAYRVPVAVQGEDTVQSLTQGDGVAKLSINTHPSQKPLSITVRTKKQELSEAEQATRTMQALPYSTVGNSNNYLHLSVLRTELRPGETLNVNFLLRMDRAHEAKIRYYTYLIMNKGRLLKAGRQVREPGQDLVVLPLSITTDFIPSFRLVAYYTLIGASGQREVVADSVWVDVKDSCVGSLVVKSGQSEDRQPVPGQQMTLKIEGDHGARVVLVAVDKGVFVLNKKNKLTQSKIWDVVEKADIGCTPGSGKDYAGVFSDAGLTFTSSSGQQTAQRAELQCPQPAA
T1 sequence (P01024 749-1663 partner limits assumed): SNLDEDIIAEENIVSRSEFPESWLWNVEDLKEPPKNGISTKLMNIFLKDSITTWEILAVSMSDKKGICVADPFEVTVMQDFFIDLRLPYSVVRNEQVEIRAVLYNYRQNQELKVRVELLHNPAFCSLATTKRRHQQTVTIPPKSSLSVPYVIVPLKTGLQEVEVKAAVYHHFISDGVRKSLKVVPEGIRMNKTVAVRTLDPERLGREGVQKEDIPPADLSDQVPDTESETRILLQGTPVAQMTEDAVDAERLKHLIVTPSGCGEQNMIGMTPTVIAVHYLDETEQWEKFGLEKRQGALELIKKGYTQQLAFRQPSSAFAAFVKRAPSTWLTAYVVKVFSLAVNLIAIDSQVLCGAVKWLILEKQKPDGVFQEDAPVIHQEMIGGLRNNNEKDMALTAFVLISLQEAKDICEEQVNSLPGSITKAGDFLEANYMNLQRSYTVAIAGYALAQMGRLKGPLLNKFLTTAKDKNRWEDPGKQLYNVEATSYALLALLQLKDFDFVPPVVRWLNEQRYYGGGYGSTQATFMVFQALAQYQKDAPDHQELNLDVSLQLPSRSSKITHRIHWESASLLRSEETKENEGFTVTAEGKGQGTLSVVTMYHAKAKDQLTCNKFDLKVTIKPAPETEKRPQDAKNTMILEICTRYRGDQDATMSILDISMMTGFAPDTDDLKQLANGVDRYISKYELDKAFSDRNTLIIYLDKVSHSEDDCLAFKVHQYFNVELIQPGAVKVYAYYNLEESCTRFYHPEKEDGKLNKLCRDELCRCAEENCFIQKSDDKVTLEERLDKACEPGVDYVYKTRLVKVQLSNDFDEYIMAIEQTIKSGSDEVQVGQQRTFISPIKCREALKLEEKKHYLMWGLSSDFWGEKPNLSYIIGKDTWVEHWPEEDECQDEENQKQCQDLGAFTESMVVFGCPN

SMILES: CC[C@H](C)[C@H](NC(=O)[C@H](N)Cc1ccc(O)cc1)C(=O)N[C@H]1CSSC[C@@H](C(=O)N(C)[C@H](C(N)=O)[C@@H](C)CC)NC(=O)[C@H](CCCNC(=N)N)NC(=O)[C@H](Cc2c[nH]cn2)NC(=O)[C@H](C)NC(=O)CN(C)C(=O)[C@H](Cc2c[nH]c3ccccc23)NC(=O)[C@H](CC(=O)O)NC(=O)[C@H](CCC(N)=O)NC(=O)[C@H](Cc2cn(C)c3ccccc23)NC(=O)[C@H](C(C)C)NC1=O [peptide 14, dTyr-Ile-[Cys-Val-Trp(Me)-Gln-Asp-Trp-Sar-Ala-His-Arg-Cys]-mIle-NH2]
- Cmax [1]: ~28 µM
- IC50 [2]: 66 ± 8 nM
- remaining at 120 h, 20 μM [3]: > 55%
- Time to reach the stated plasma concentration ([4]; po, 4 mg/kg): within one hour
- level at time molar ([4]; po, 4 mg/kg): ~0.023 µM
- Cmax ([4]; sc, 2 mg/kg): ~12.5 µM
- Time to peak plasma concentration ([4]; sc, 2 mg/kg): 4 to 5 h
- ka: association rate ([5]; Table 1, N-terminal analogs): 2.8 ± 0.5 10^6/Ms
- ka: association rate ([5]; Table 2, Cp40-based analogs): 2.8 ± 0.6 10^6/Ms
- solubility [6]: > 50000 µg/mL
- solubility at 5 min ([6]; pH 7.4): 800 µg/mL (≈ 447 µM)
- Complement inhibitory activity versus analog concentration in plasma samples [7]: closely track the concentration of analog
- Solubility DPBS pH7.4 [8]: 0.8 mg/mL
- Complement inhibitory activity versus analog concentration in plasma samples [9]: closely track the concentration of analog
- Time to peak plasma concentration [10]: 5 to 6 h
- Cmax ([10]; monkey, im): ~10 µM
- Hydrophobicity Retention Time [11]: 4.73 min
